{"source": "patent US20230313199A1", "about": "“TARGET FOR MODULATING BODY MASS” (Massachusetts Institute of Technology, priority 2020, published 2023)", "key": {"293T cells": {"test_system": "293T cells", "assay": "Oxygen consumption rate, parental 293T cells", "type": "cell-based, human", "conditions": "40 μM heme for 1 hour"}, "[1]": {"molecular_target": "T1, endogenous MFSD7C and ATP5h (Mus musculus, UniProt Q91X85)", "T1 construct": "Co-IP and immunoblotting analysis of endogenous MFSD7C with ATP5h, SERCA2b and HMOX1 in bone marrow-derived macrophages; endogenous in cells; host or cells: bone marrow-derived macrophages from Mfsd7c fl/fl C57BL/6 mice", "T1 sequence (Q91X85 whole entry)": "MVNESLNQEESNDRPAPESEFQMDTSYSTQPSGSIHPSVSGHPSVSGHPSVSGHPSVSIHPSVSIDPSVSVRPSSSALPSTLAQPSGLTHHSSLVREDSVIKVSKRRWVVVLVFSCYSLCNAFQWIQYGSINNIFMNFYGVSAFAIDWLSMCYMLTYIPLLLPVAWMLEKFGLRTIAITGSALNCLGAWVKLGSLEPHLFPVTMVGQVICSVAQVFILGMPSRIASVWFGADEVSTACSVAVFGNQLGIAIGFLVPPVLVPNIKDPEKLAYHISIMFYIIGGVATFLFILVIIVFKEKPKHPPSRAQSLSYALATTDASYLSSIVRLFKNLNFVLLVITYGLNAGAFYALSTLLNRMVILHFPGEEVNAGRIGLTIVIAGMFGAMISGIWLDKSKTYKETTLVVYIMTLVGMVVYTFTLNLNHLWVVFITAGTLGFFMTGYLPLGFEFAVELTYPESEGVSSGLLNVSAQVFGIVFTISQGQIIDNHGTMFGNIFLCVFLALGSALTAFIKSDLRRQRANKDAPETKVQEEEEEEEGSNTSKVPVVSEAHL", "assay": "Co-IP of endogenous MFSD7C and ATP5h in bone marrow-derived macrophages", "type": "cell-based", "conditions": "heme treatment", "experimental": "(§1) NTD was incubated with heme and run on Superdex 75 gel filtration column. The flow through was measured for absorbance at 230 nm (gray), 380 nm (blue), and 415 nm (green). Absorbance intensity was normalized to maximum value. […] Heme (100 μM) absorption was set to zero. […] Wildtype (WT) and mutant (Mut) peptide sequences are shown. […] Shown are representative data from five separate experiments. […] Shown are immunoblots of MFSD7C, ATP5h, SERCA2b, and HMOX1 on whole lysates or immunoblots of MFSD7C on anti-ATP5h, anti-SERCA2b and anti-HMOX1 immunoprecipitates. Representative data from one from three experiments are shown. […] Shown are representative data from three separate experiments. WCE: whole cell extract, Sup: supernatant, Mito: 10,000 g mitochondrial fraction. […] THP-1 cells were stained with MitoTracker (green), fixed and permeabilized, and then stained with rabbit polyclonal antibody specific for the C-terminus of MFSD7C, followed with Alexa Fluor® 594-labelled goat anti-rabbit antibody (red). Nuclei were labeled using DAPI (blue). […]\n(§2) Differentiation of bone marrow-derived macrophage (BMDM). […] Cells were resuspended in DMEM media containing 10% FBS, 2 mM L-glutamine, 2 mM pyruvate, non-essential amino acids (100 μM each), 0.55 mM 2-mercaptoethanol, penicillin/streptomycin), passed through a 40 μm Falcon cell strainer (VWR) to remove large aggregates, and counted. […]"}, "[2]": {"molecular_target": "T2, endogenous MFSD7C and SERCA2b (Mus musculus, UniProt Q91X85)", "T2 construct": "Co-IP and immunoblotting analysis of endogenous MFSD7C with ATP5h, SERCA2b and HMOX1 in bone marrow-derived macrophages; endogenous in cells; host or cells: bone marrow-derived macrophages from C57BL/6 mice", "T2 sequence (Q91X85 whole entry)": "as above", "assay": "Co-IP of endogenous MFSD7C and SERCA2b in bone marrow-derived macrophages", "type": "cell-based", "conditions": "bone marrow-derived wild-type macrophages, heme treatment", "experimental": "as §1, §2"}, "[3]": {"molecular_target": "T3, MFSD7C-SERCA2b co-localization (Homo sapiens, UniProt Q9UPI3)", "T3 construct": "host or cells: THP-1 cells", "T3 sequence (Q9UPI3 whole entry)": "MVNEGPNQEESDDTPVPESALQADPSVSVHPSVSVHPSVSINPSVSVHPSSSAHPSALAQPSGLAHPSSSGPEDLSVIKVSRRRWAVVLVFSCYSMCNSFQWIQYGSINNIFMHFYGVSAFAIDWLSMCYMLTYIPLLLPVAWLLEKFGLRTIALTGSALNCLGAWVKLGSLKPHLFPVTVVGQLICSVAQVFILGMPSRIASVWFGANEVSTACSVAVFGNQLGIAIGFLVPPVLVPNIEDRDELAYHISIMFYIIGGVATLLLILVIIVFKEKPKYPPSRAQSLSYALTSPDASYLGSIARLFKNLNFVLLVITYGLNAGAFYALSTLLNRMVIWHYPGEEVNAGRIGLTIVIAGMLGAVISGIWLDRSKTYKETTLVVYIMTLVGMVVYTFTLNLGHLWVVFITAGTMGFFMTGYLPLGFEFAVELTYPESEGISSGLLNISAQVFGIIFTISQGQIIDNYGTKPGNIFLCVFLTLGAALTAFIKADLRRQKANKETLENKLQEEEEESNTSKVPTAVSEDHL", "assay": "Confocal co-localization of MFSD7C and SERCA2b in THP-1 cells", "type": "cell-based", "conditions": "40 μM heme 1 hour, 0.89 without heme", "experimental": "FIGS. 16A-16F show Co-localization of MFSD7C and SERCA2b. […] Shown are representative images of THP-1 cells stained for MFSD7C (red), SERCA2b (green), nuclei (blue) and merged image. […] THP-1 cells were not treated or treated with 40 μM of heme for 1 hour and then stained for MFSD7C, SERCA2b and nuclei as in (FIG. 16A). Co-localization between MFSD7C and SERCA2b was quantified. Shown are representative merged images (FIG. 16B) and comparison of Pearson's correlation coefficients values with or without heme treatment (FIG. 16C) (in FIG. 16C, n=7 biologically independent samples). P-values were calculated using unpaired t-test (***p<0.05). […] THP-1 cells were stained for MFSD7C (red), ER (green), mitochondria (blue), and DNA (grey). Shown are representative single and merged images (FIG. 16D). Enlarged image of the boxed area is shown in the last panel (bottom-right). Pearson's rank correlation values between the indicated comparisons are shown (FIG. 16E). (n=3 biologically independent samples). […] THP-1 cells were incubated with FPT for 6 hours, washed, treated with or without 4 μM thapsingargin for 2 hours. The cells were washed and reseeded in poly-lysine coated glass bottom dishes. After cells attached to the glass, medium containing 40 μM heme was added. Cells in the same field were imaged immediately (0 min) and again 1 hour later. […]"}, "SERCA2b": {"test_system": "SERCA2b", "assay": "SERCA2b protein level by Western blotting, THP-1 cells", "type": "cell-based, human", "conditions": "THP-1 cells following heme treatment vs parental THP-1 cells", "experimental": "FIGS. 5A-5F show MFSD7C and heme regulate thermogenesis through SERCA2b in THP-1 cells. […] 30 hours later, MG132 was added into half of the cells and the other half was not treated. Another 35 hours later, some cells were treated with 40 μM heme for 1 hour before lysis. Cell lysates were immunoprecipitated with anti-FLAG antibody, and eluted, followed by anti-HA immunoprecipitation and elution. Total cell lysate and elute were subjected to Western blotting and probed with anti-SERCA2b or anti-MFSD7C antibodies. Shown are representative data from one of three experiments. […] 24 hrs later, cells were either not treated or treated with 10 μM MG132 for either 6 or 12 hours. The cells were lysed and subjected to FLAG pull-down and blotted with anti-MFSD7C, anti-SERCA2b and anti-ubiquitin antibodies. Shown are representative data from one of three experiments. […] Parental THP-1 cells were either not treated or treated with heme before lysis. Shown are representative data from one of four experiments. […] Shown are representative data from one of two experiments. […] Cells were washed and treated with 40 μM heme for one hour before flow cytometry. Representative FPT histograms from one of three experiments are shown. […] Shown are representative FPT histograms from one of three experiments.\nEndogenous protein extraction. […]"}}, "data": [{"smiles": "C=CC1=C(C)c2cc3[n-]c(cc4[n-]c(cc5nc(cc1n2)C(C)=C5C=C)c(C)c4CCC(=O)O)c(CCC(=O)O)c3C.[Fe+2]", "note": "[heme]", "values": [{"measurement": "OCR", "setting": "293T cells", "value": "significantly stimulated"}, {"measurement": "interactions between endogenous MFSD7C and ATP5h (co-IP)", "setting": "[1]", "value": "disrupted"}, {"measurement": "co-IP of endogenous MFSD7C and SERCA2b", "setting": "[2]", "value": "diminished"}, {"measurement": "Pearson's correlation coefficient value of MFSD7C/SERCA2b co-localization", "setting": "[3]", "value": 0.67}, {"measurement": "SERCA2b level", "setting": "SERCA2b", "value": "significantly higher"}]}]}
